According to ChEMBL document CHEMBL4308841, “Synthesis, in vitro antiproliferative activity, and kinase inhibitory effects of pyrazole-containing diarylureas and diarylamides” (Eur J Med Chem, 2018):

What was measured:
[1] = tested on: HL-60(TB); assay: Growth inhibition of human HL-60(TB) cells incubated for 48 hrs by sulforhodamine B assay; format: functional, cell-based; settings: HL-60, 48 h
[2] = tested on: NCI-H23; assay: Growth inhibition of human NCI-H23 cells incubated for 48 hrs by sulforhodamine B assay; format: functional, cell-based; settings: NCI-H23, 48 h
[3] = tested on: SF-539; assay: Growth inhibition of human SF539 cells incubated for 48 hrs by sulforhodamine B assay; format: functional, cell-based; settings: SF-539, 48 h
[4] = tested on: UACC-257; assay: Growth inhibition of human UACC257 cells incubated for 48 hrs by sulforhodamine B assay; format: functional, cell-based; settings: UACC-257, 48 h
[5] = tested on: OVCAR-8; assay: Growth inhibition of human OVCAR8 cells incubated for 48 hrs by sulforhodamine B assay; format: functional, cell-based; settings: OVCAR-8, 48 h
[6] = tested on: NCI/ADR-RES; assay: Growth inhibition of human NCI/ADR-RES cells incubated for 48 hrs by sulforhodamine B assay; format: functional, cell-based
[7] = tested on: UO-31; assay: Growth inhibition of human UO31 cells incubated for 48 hrs by sulforhodamine B assay; format: functional, cell-based; settings: UO-31, 48 h
[8] = tested on: DU-145; assay: Growth inhibition of human DU145 cells incubated for 48 hrs by sulforhodamine B assay; format: functional, cell-based; settings: DU-145, 48 h
[9] = tested on: BT-549; assay: Growth inhibition of human BT549 cells incubated for 48 hrs by sulforhodamine B assay; format: functional, cell-based; settings: BT-549, 48 h
[10] = tested on: MOLT-4; assay: Growth inhibition of human MOLT4 cells assessed as cell growth at 0.01 uM incubated for 48 hrs by sulforhodamine B assay relative to control; format: functional; settings: MOLT-4, 48 h, read-out: Activity
[11] = tested on: NCI-H522; assay: Growth inhibition of human NCI-H522 cells assessed as cell growth at 0.01 uM incubated for 48 hrs by sulforhodamine B assay relative to control; format: functional; settings: NCI-H522, 48 h, read-out: Activity
[12] = tested on: SK-MEL-28; assay: Growth inhibition of human SK-MEL-28 cells assessed as cell growth at 0.01 uM incubated for 48 hrs by sulforhodamine B assay relative to control; format: functional; settings: SK-MEL-28, 48 h, read-out: Activity
[13] = tested on: OVCAR-3; assay: Growth inhibition of human OVCAR3 cells assessed as cell growth at 0.01 uM incubated for 48 hrs by sulforhodamine B assay relative to control; format: functional; settings: OVCAR-3, 48 h, read-out: Activity
[14] = tested on: ACHN; assay: Growth inhibition of human ACHN cells assessed as cell growth at 0.01 uM incubated for 48 hrs by sulforhodamine B assay relative to control; format: functional; settings: read-out: Activity
[15] = tested on: CCRF-CEM; assay: Growth inhibition of human CCRF-CEM cells assessed as cell growth at 0.1 uM incubated for 48 hrs by sulforhodamine B assay relative to control; format: functional; settings: read-out: Activity
[16] = tested on: NCI-H322M; assay: Growth inhibition of human NCI-H322M cells assessed as cell growth at 0.1 uM incubated for 48 hrs by sulforhodamine B assay relative to control; format: functional; settings: read-out: Activity
[17] = tested on: KM12; assay: Growth inhibition of human KM12 cells assessed as cell growth at 0.1 uM incubated for 48 hrs by sulforhodamine B assay relative to control; format: functional; settings: KM12, 48 h, read-out: Activity
[18] = tested on: SK-MEL-28; assay: Growth inhibition of human SK-MEL-28 cells assessed as cell growth at 0.1 uM incubated for 48 hrs by sulforhodamine B assay relative to control; format: functional; settings: SK-MEL-28, 48 h, read-out: Activity
[19] = tested on: T47D; assay: Growth inhibition of human T47D cells assessed as cell growth at 0.1 uM incubated for 48 hrs by sulforhodamine B assay relative to control; format: functional; settings: read-out: Activity
[20] = tested on: CCRF-CEM; assay: Growth inhibition of human CCRF-CEM cells assessed as cell growth at 1 uM incubated for 48 hrs by sulforhodamine B assay relative to control; format: functional; settings: read-out: Activity
[21] = tested on: RPMI-8226; assay: Growth inhibition of human RPMI8226 cells assessed as cell growth at 1 uM incubated for 48 hrs by sulforhodamine B assay relative to control; format: functional; settings: RPMI-8226, 48 h, read-out: Activity
[22] = tested on: SK-MEL-2; assay: Growth inhibition of human SK-MEL-2 cells assessed as cell growth at 1 uM incubated for 48 hrs by sulforhodamine B assay relative to control; format: functional; settings: SK-MEL-2, 48 h, read-out: Activity
[23] = tested on: CAKI-1; assay: Growth inhibition of human Caki1 cells assessed as cell growth at 1 uM incubated for 48 hrs by sulforhodamine B assay relative to control; format: functional; settings: CAKI-1, 48 h, read-out: Activity
[24] = tested on: PC-3; assay: Growth inhibition of human PC3 cells assessed as cell growth at 1 uM incubated for 48 hrs by sulforhodamine B assay relative to control; format: functional; settings: PC-3, 48 h, read-out: Activity
[25] = tested on: MDA-MB-231; assay: Growth inhibition of human MDA-MB-231 cells assessed as cell growth at 1 uM incubated for 48 hrs by sulforhodamine B assay relative to control; format: functional; settings: MDA-MB-231, 48 h, read-out: Activity
[26] = tested on: Malme-3M; assay: Growth inhibition of human MALME-3M cells assessed as cell growth at 100 uM incubated for 48 hrs by sulforhodamine B assay relative to control; format: functional; settings: read-out: Activity
[27] = tested on: OVCAR-3; assay: Growth inhibition of human OVCAR3 cells assessed as cell growth at 100 uM incubated for 48 hrs by sulforhodamine B assay relative to control; format: functional; settings: OVCAR-3, 48 h, read-out: Activity
[28] = tested on: BT-549; assay: Growth inhibition of human BT549 cells assessed as cell growth at 100 uM incubated for 48 hrs by sulforhodamine B assay relative to control; format: functional; settings: BT-549, 48 h, read-out: Activity
[29] = read-out: LC50 (the source's name)
[30] = read-out: pLC50 (the source's name) (converted)

For COc1cc(Cl)cc(-c2nn(-c3cccc(NC(=O)Nc4ccc(Cl)c(Cl)c4)c3)cc2-c2ccncc2)c1, the GI50 ([1]; read-out: GI50) was 2.19 µM, the LC50 ([1]; read-out: LC50) was greater than 100 µM and the TGI ([1]; read-out: TGI) was 55.8 µM. The GI50 ([1]; read-out: pGI50 (converted)) was 2.19 µM, the LC50 ([1]; read-out: pLC50 (converted)) was greater than 100 µM and the TGI ([1]; read-out: pTGI (converted)) was 5.62 µM. For the same compound, the LC50 ([2]; read-out: LC50) was greater than 100 µM, the GI50 ([2]; read-out: pGI50 (converted)) was 2.63 µM and the LC50 ([2]; read-out: pLC50 (converted)) was greater than 100 µM. The TGI ([2]; read-out: pTGI (converted)) was 9.12 µM, the GI50 ([3]; read-out: GI50) was 2.5 µM and the CC50 [3, 29] was greater than 100 µM. For the same compound, the TGI ([3]; read-out: TGI) was 13.2 µM, the GI50 ([3]; read-out: pGI50 (converted)) was 2.57 µM and the CC50 [3, 30] was greater than 100 µM. The TGI ([3]; read-out: pTGI (converted)) was 13.2 µM, the GI50 ([4]; read-out: GI50) was 1.54 µM and the CC50 [4, 29] was greater than 100 µM. It also gave a TGI ([4]; read-out: TGI) of 61.9 µM, a GI50 ([4]; read-out: pGI50 (converted)) of 1.86 µM and a CC50 [4, 30] greater than 100 µM. The TGI ([4]; read-out: pTGI (converted)) was 5.25 µM, the GI50 ([5]; read-out: GI50) was 2.3 µM and the CC50 [5, 29] was greater than 100 µM. It also gave a TGI ([5]; read-out: TGI) of 11.2 µM, a GI50 ([5]; read-out: pGI50 (converted)) of 2.29 µM and a CC50 [5, 30] greater than 100 µM. The TGI ([5]; read-out: pTGI (converted)) was 11.2 µM, the GI50 ([6]; read-out: GI50) was 2.34 µM and the CC50 [6, 29] was greater than 100 µM. It also gave a TGI ([6]; read-out: TGI) of 24.9 µM, a GI50 ([6]; read-out: pGI50 (converted)) of 2.34 µM and a CC50 [6, 30] greater than 100 µM. It also gave a TGI ([6]; read-out: pTGI (converted)) of 25.1 µM, an IC50 [7] of 1.89 µM and a GI50 ([7]; read-out: GI50) of 1.59 µM. It also gave a CC50 [7, 29] greater than 100 µM, a TGI ([7]; read-out: TGI) of 15.2 µM and a GI50 ([7]; read-out: pGI50 (converted)) of 1.91 µM. It also gave a CC50 [7, 30] greater than 100 µM, a TGI ([7]; read-out: pTGI (converted)) of 18.2 µM and a GI50 ([8]; read-out: GI50) of 3 µM. For the same compound, the CC50 [8, 29] was greater than 100 µM, the TGI ([8]; read-out: TGI) was greater than 100 µM and the GI50 ([8]; read-out: pGI50 (converted)) was 3.89 µM. It also gave a CC50 [8, 30] greater than 100 µM, a TGI ([8]; read-out: pTGI (converted)) greater than 100 µM and a GI50 ([9]; read-out: GI50) of 2.52 µM. It also gave a CC50 [9, 29] greater than 100 µM, a TGI ([9]; read-out: TGI) of 62.5 µM and a GI50 ([9]; read-out: pGI50 (converted)) of 2.63 µM. It also gave a CC50 [9, 30] greater than 100 µM, a TGI ([9]; read-out: pTGI (converted)) of 8.32 µM and a growth at 0.01 µM [10] of 99%. For the same compound, the growth at 0.01 µM [11] was 95%, the growth at 0.01 µM [12] was 101% and the growth at 0.01 µM [13] was 100%. For the same compound, the growth at 0.01 µM [14] was 102%, the growth at 0.1 µM [15] was 97% and the growth at 0.1 µM [16] was 90%. For the same compound, the growth at 0.1 µM [17] was 92%, the growth at 0.1 µM [18] was 103% and the growth at 0.1 µM [19] was 94%. It also gave a growth at 1 µM [20] of 82%, a growth at 1 µM [21] of 39% and a growth at 1 µM [22] of 80%. It also gave a growth at 1 µM [23] of 79%, a growth at 1 µM [24] of 54% and a growth at 1 µM [25] of 85%. For the same compound, the growth at 100 µM [26] was -24%, the growth at 100 µM [27] was -4% and the growth at 100 µM [28] was -15%.
